In patent US9783537B2, “3-(4-ethylnylphenyl) pyridopyrimidinone compounds and process for preparation thereof useful as potential anticancer agents” (Council of Scientific & Industrial Research, priority 2013, dated 2017):
Like-named read-outs stand apart in the source and are kept apart here.

Tests used:
[1] = system: HL-60(TB); assay: SRB 48 h growth assay, Leukemia HL-60(TB); assay type: cell-based, human
[2] = system: A549/ATCC; assay: SRB 48 h growth assay, Non-small Cell Lung A549/ATCC; assay type: cell-based, human
[3] = system: HOP-62; assay: SRB 48 h growth assay, Non-small Cell Lung HOP-62; assay type: cell-based, human; conditions: HOP-62, Non-small Cell Lung
[4] = system: HOP-92; assay: SRB 48 h growth assay, Non-small Cell Lung HOP-92; assay type: cell-based, human; conditions: Homo sapiens, HOP-92, Non-small Cell Lung
[5] = system: NCI-H460; assay: SRB 48 h growth assay, Non-small Cell Lung NCI-H460; assay type: cell-based, human
[6] = system: NCI-H522; assay: SRB 48 h growth assay, Non-small Cell Lung NCI-H522; assay type: cell-based, human
[7] = system: SF-268; assay: SRB 48 h growth assay, CNS SF-268; assay type: cell-based, human; conditions: SF-268, CNS
[8] = system: SF-539; assay: SRB 48 h growth assay, CNS SF-539; assay type: cell-based, human; conditions: SF-539, CNS
[9] = system: SNB-19; assay: SRB 48 h growth assay, CNS SNB-19; assay type: cell-based, human; conditions: SNB-19, CNS
[10] = system: SNB-75; assay: SRB 48 h growth assay, CNS SNB-75; assay type: cell-based, human; conditions: SNB-75, CNS
[11] = system: SK-MEL-28; assay: SRB 48 h growth assay, Melanoma SK-MEL-28; assay type: cell-based, human; conditions: SK-MEL-28, Melanoma
[12] = system: UACC-257; assay: SRB 48 h growth assay, Melanoma UACC-257; assay type: cell-based, human; conditions: UACC-257, Melanoma
[13] = system: IGROV1; assay: SRB 48 h growth assay, Ovarian IGROV1; assay type: cell-based, human
[14] = system: OVCAR-4; assay: SRB 48 h growth assay, Ovarian OVCAR-4; assay type: cell-based, human; conditions: OVCAR-4, Ovarian
[15] = system: NCI/ADR-RES; assay: SRB 48 h growth assay, Ovarian NCI/ADR-RES; assay type: cell-based, human
[16] = system: SK-OV-3; assay: SRB 48 h growth assay, Ovarian SK-OV-3; assay type: cell-based, human; conditions: SK-OV-3, Ovarian
[17] = system: A498; assay: SRB 48 h growth assay, Renal A498; assay type: cell-based, human
[18] = system: ACHN; assay: SRB 48 h growth assay, Renal ACHN; assay type: cell-based, human
[19] = system: RXF393; assay: SRB 48 h growth assay, Renal RXF393; assay type: cell-based, human
[20] = system: SN12C; assay: SRB 48 h growth assay, Renal SN12C; assay type: cell-based, human
[21] = system: TK-10; assay: SRB 48 h growth assay, Renal TK-10; assay type: cell-based, human; conditions: TK-10, Renal
[22] = system: PC-3; assay: SRB 48 h growth assay, Prostate PC-3; assay type: cell-based, human; conditions: PC-3, Prostate
[23] = system: MDA-MB-231/ATCC; assay: SRB 48 h growth assay, Breast MDA-MB-231/ATCC; assay type: cell-based, human
[24] = in vitro anticancer activity, non-small cell lung panel; assay type: cell-based; conditions: Homo sapiens; nine non-small cell lung cancer cell lines, exposure at least 48 h; read-out: GI50, range over panel
[25] = system: seven ovarian cancer cell lines (IGROV1, OVCAR-3, OVCAR-4, OVCAR-5, OVCAR-8, NCI/ADR-RES and SK-OV-3); assay: in vitro anticancer activity, ovarian panel; assay type: cell-based; conditions: Homo sapiens, exposure at least 48 h, read-out: GI50, range over panel
[26] = system: six breast cancer cell line (MCF-7, MDA-MB-231/ATCC, HS 578T, TD-47D, MDA-MB-468 and BT-549); assay: in vitro anticancer activity, breast panel; assay type: cell-based; conditions: Homo sapiens; six breast cancer cell lines, exposure at least 48 h; read-out: GI50, range over panel
[27] = Homo sapiens, read-out: Growth Inhibition GI50
[28] = Homo sapiens, read-out: Log10 GI50 (converted)
[29] = Homo sapiens, read-out: Log10 LC50 (converted)

C#Cc1ccc(-n2c(/C=C/c3ccc(C(F)(F)F)cc3)nc3ncccc3c2=O)cc1 [4c, (E)-3-(4-Ethynylphenyl)-2-(4-(trifluoromethyl)styryl)pyrido[2,3-d]pyrimidin-4(3H)-one]
Log10 TGI50 [1]: −5.22
GI50 [1, 27]: 2070 nM
GI50 [1, 28]: 2090 nM
CC50 [1, 29]: > 100000 nM
Log10 TGI50 [2]: −5.34
GI50 [2, 27]: 1830 nM
GI50 [2, 28]: 1820 nM
CC50 [2, 29]: > 100000 nM
Log10 TGI50 [3]: −5.29
GI50 [3, 27]: 2430 nM
GI50 [3, 28]: 2450 nM
CC50 [3, 29]: > 100000 nM
GI50 ([4]; read-out: Growth Inhibition GI50): 1320 nM
GI50 ([4]; read-out: Log10 GI50 (converted)): 1320 nM
CC50 ([4]; read-out: Log10 LC50 (converted)): 8910 nM
Log10 TGI50 [5]: −5.38
GI50 [5, 27]: 1980 nM
GI50 [5, 28]: 2000 nM
LC50 [5, 29]: 8710 nM
Log10 TGI50 [6]: −5.51
GI50 [6, 27]: 1650 nM
GI50 [6, 28]: 1660 nM
CC50 [6, 29]: 5750 nM
GI50 [7, 27]: 2270 nM
GI50 [7, 28]: 2290 nM
CC50 [7, 29]: 24500 nM
Log10 TGI50 [7]: −5.23
GI50 [8, 27]: 1680 nM
GI50 [8, 28]: 1660 nM
CC50 [8, 29]: 6030 nM
Log10 TGI50 [8]: −5.50
GI50 [9, 27]: 1910 nM
GI50 [9, 28]: 1910 nM
CC50 [9, 29]: 9550 nM
Log10 TGI50 [9]: −5.37
GI50 [10, 27]: 1810 nM
GI50 [10, 28]: 1820 nM
CC50 [10, 29]: 28200 nM
Log10 TGI50 [10]: −5.14
GI50 [11, 27]: 1780 nM
GI50 [11, 28]: 1780 nM
CC50 [11, 29]: 6030 nM
Log10 TGI50 [11]: −5.49
GI50 [12, 27]: 1560 nM
GI50 [12, 28]: 1550 nM
CC50 [12, 29]: 5620 nM
Log10 TGI50 [12]: −5.53
Log10 TGI50 [13]: −5.40
GI50 ([13]; Homo sapiens, IGROV-1, read-out: Growth Inhibition GI50): 1960 nM
GI50 ([13]; Homo sapiens, IGROV-1, read-out: Log10 GI50 (converted)): 1950 nM
CC50 ([13]; Homo sapiens, IGROV-1, read-out: Log10 LC50 (converted)): 8320 nM
GI50 [14, 27]: 1580 nM
GI50 [14, 28]: 479 nM
CC50 [14, 29]: 6920 nM
Log10 TGI50 [14]: −5.48
Log10 TGI50 [15]: −5.16
GI50 [15, 27]: 2500 nM
GI50 [15, 28]: 2510 nM
CC50 [15, 29]: > 100000 nM
GI50 [16, 27]: 3610 nM
GI50 [16, 28]: 3630 nM
CC50 [16, 29]: 53700 nM
Log10 TGI50 [16]: −4.87
Log10 TGI50 [17]: −5.24
GI50 [17, 27]: 2340 nM
GI50 [17, 28]: 2400 nM
CC50 [17, 29]: 24000 nM
Log10 TGI50 [18]: −5.49
GI50 [18, 27]: 1710 nM
GI50 [18, 28]: 1700 nM
CC50 [18, 29]: 6170 nM
Log10 TGI50 [19]: −5.42
GI50 ([19]; Homo sapiens, RXF 393, read-out: Growth Inhibition GI50): 1790 nM
GI50 ([19]; Homo sapiens, RXF 393, read-out: Log10 GI50 (converted)): 1780 nM
CC50 ([19]; Homo sapiens, RXF 393, read-out: Log10 LC50 (converted)): 7940 nM
Log10 TGI50 [20]: −5.25
GI50 [20, 27]: 2080 nM
GI50 [20, 28]: 2090 nM
CC50 [20, 29]: > 100000 nM
GI50 [21, 27]: 2190 nM
GI50 [21, 28]: 2190 nM
CC50 [21, 29]: 6310 nM
Log10 TGI50 [21]: −5.43
GI50 [22, 27]: 1960 nM
GI50 [22, 28]: 1950 nM
CC50 [22, 29]: > 100000 nM
Log10 TGI50 [22]: −5.20
Log10 TGI50 [23]: −5.26
GI50 [23, 27]: 2050 nM
GI50 [23, 28]: 2040 nM
CC50 [23, 29]: 60300 nM
GI50 [24]: 1630 to 7450 nM
GI50 [25]: 1950 to 7550 nM
GI50 [26]: 960 to 7620 nM
